Measured values: paper PMC11904993, “Humanized Candida and NanoBiT Assays Expedite Discovery of Bdf1 Bromodomain Inhibitors With Antifungal Potential” (Advanced Science, 2025)
Several values for one entry are separate records, joined by “and”; a condition that tells them apart may be missing. Equal entries are not always repeated. Where two headings read alike, the source gives them in different places.

What was measured:
C. albicans = assay: Growth of reference and clinical strains in liquid media; type: cell-based; details: for EC50: Candida albicans
Protocol: (§1) Strains were presented in Table S8 (Supporting Information). Cells from a single colony were diluted in 0.85% NaCl before being counted using a Neubauer chamber. They were diluted to a final concentration of 6500 cells mL^−1 per well for all clinical strains of C. albicans and C. glabrata; 65 000 cells mL^−1 per well for C. auris; 13 500 cells mL^−1 per well for C. parapsilosis; 3375 cells mL^−1 per well for C. krusei and 1687.5 cells mL^−1 per well for C. tropicalis, in a sterile 96‐well plate. Cells were then grown in SC medium with or without chemical compounds at 30 °C with regular shaking. The significance of growth defects was assessed using Holm‐Sidak method by GraphPad Prism 10.

C. glabrata = assay: as above; type: cell-based; details: for Growth (%): C. glabrata; for EC50: Nakaseomyces glabratus
Protocol: as §1

C. auris = assay: Growth in liquid media; type: cell-based; details: Fig 5C; for Growth (%): C. auris
Protocol: as §1

C. krusei = assay: Growth in liquid media; type: cell-based; details: Fig 5C
Protocol: as §1

C. parapsilosis = assay: Growth in liquid media; type: cell-based; details: Fig 5C; for Growth (%): C. parapsilosis
Protocol: as §1

C. tropicalis = assay: Growth in liquid media; type: cell-based; details: Fig 5C; for Growth (%): C. tropicalis
Protocol: as §1

[1] = system: C. albicans expressing WT Bdf1; assay: Galleria fungal infection model, WT strain; type: in vivo, Galleria mellonella; parameters: key to survival event of one larva (1 = death 0 = no death): 1 = death; 0 = no death
Protocol: (§2) Galleria mellonella larvae were purchased from Decathlon (La Tronche, France). They were selected in the late larval stages weighing between 300 and 400 mg. Groups of 10 larvae were injected into the right or left last pro‐leg with 10 µl of either PBS, C. albicans suspensions or antifungal drug using an insulin syringe (BDUltra‐Fine 0.3 ml). C. albicans suspensions of the WT and humanized Bdf1 strains were adjusted to 10^6 cells larva^−1. Antifungal drugs (anidulafungin 5 mg kg^−1 or I‐BET726 66 or 44 mg kg^−1) were injected once 30 min before fungal infection. An infected control group received the C. albicans inoculum and the solvent of the drug. A non‐infected control group received only PBS. After inoculation, larvae were placed in Petri dishes and incubated in the dark at 37 °C. The larvae were monitored for 5 days, and survival outcome was determined. For experiments performed at the lower (44 mg kg^−1) dose of IBET‐726, the difference in protection against infection with humanized versus WT C. albicans strains was more evident using the survival data at 40 h rather than at 100 h post‐infection. Larvae were considered dead when no response was observed following touch. All experiments were performed at least 3 times independently. The significance of survival was assessed by a Log‐rank (Mantel‐Cox) test in GraphPad Prism 10.

[2] = system: C. albicans expressing humanized Bdf1; assay: Galleria fungal infection model, humanized strain; type: in vivo, Galleria mellonella; parameters: key to survival event of one larva (1 = death 0 = no death): 1 = death; 0 = no death; details: for survival event of one larva (1 = death 0 = no death): Bdf1-hBD* strain
Protocol: as §2

[3] = system: C. glabrata strains (WT, pdr1∆ or PDR1 rescue); assay: Growth assays to assess compound efflux; type: cell-based; details: for growth relative to Solvent = 100 (Figure S10B): compound 50 µM, three replicates
Protocol: Cells from a single colony were diluted in 0.85% NaCl before being counted using a Neubauer chamber. […] The effect of fluconazole was tested by titration on these strains under similar conditions.

HeLa cells = details: highest concentration tested (300 µM); 24 h
Protocol: (§3) Cytotoxicity assays were performed as described^[ [1] ^] with minor changes. Proliferation of human cells was assessed using an MTT colorimetric assay (Cell Proliferation Kit I, Roche). HeLa (epithelial cells, ATCC number CCL‐2) and IMR90 (primary fibroblasts cells, ATCC number CCL‐186) cells were cultured in humidified atmosphere (37 °C and 5% CO2) in DMEM medium containing 10% heat inactivated fetal calf serum and 2 mM glutamine. […] Plates were incubated at 37 °C and 5% CO2 for 24 h before adding 10 mL of MTT labelling reagent (final concentration 0.5 mg mL^−1) to each well. After incubating for a further 4 h, 100 µL of the solubilization solution were added in each well. Plates were allowed to stand overnight in the incubator before measuring the absorbance at 570 nm and at 690 nm in a ClarioStar plate reader. The values of A570–A690 nm were normalized relative to that obtained with vehicle (0.2% DMSO, 0.8% ethanol) and plotted against compound concentration.

[4] = system: IMR90 (primary fibroblast) cells; details: highest concentration tested (300 µM); 24 h
Protocol: as §3

CC(=O)N1c2ccc(-c3ccc(C(=O)O)cc3)cc2C(Nc2ccc(Cl)cc2)CC1C (stereo not shown) [I-BET726]
Growth (%) (C. albicans; C. albicans, 1.5625 µM, Fig 5C): 81% and 83% and 74% | Growth (%) (C. albicans; C. albicans, 3.125 µM, Fig 5C): 66% and 63% and 57% | Growth (%) (C. albicans; C. albicans, 25 µM, Fig 5C): 17% and 23% and 20% | Growth (%) (C. albicans; C. albicans, 25 µM, Fig 5E): 17% and 23% and 20% | EC50 (C. albicans; ATCC90028, Table S5, C. albicans ATCC90028, WT, read-out: EC50 growth inhibition): 4.25 ± 0.47 µM | EC50 (C. albicans; Fig 5C, read-out: EC50 (μM), C. albicans): 4.3 ± 0.5 µM | EC50 (C. albicans; Table S5, C. albicans CagR, echinocandin-resistant, not characterized, read-out: EC50 growth inhibition): 4.14 ± 0.48 µM | EC50 (C. albicans; all eight azole- and echinocandin-resistant C. albicans clinical isolates, read-out: EC50 growth inhibition): 5 to 10 µM | EC50 (C. albicans; read-out: EC50 growth inhibition, Table S5, C. albicans AF1, echinocandin-resistant, Fks1-HS1 (S645P)): 7.13 ± 1.48 µM | EC50 (C. albicans; read-out: EC50 growth inhibition, Table S5, C. albicans AF2, echinocandin-resistant, Fks1-HS1 (S645P)): 4.59 ± 0.95 µM | EC50 (C. albicans; read-out: EC50 growth inhibition, Table S5, C. albicans AF3, echinocandin-resistant, Fks1-HS1 (S645P)): 6.83 ± 0.26 µM | EC50 (C. albicans; read-out: EC50 growth inhibition, Table S5, C. albicans CAAL74, fluconazole-resistant, Erg11 (Y132F, E266D, G448V, V488I)): 5.87 ± 1.03 µM | EC50 (C. albicans; read-out: EC50 growth inhibition, Table S5, C. albicans DSY292, azole-resistant, Erg11 (Y132H, G464S, R467K)): 3.07 ± 0.26 µM | EC50 (C. albicans; read-out: EC50 growth inhibition, Table S5, C. albicans DSY296, azole-resistant, Erg11 (G129A, G464S, G450E), Tac1 (N977D)): 7.36 ± 0.76 µM | EC50 (C. albicans; read-out: EC50 growth inhibition, Table S5, C. albicans DSY2323, azole-resistant, Erg11 (S405F), Tac1 (G980E)): 11.5 ± 1.7 µM | Growth (%) (C. albicans; strain AF1, 25 µM, Fig 5E): 34% and 31% and 28% | Growth (%) (C. albicans; strain AF2, 25 µM, Fig 5E): 26% and 28% and 29% | Growth (%) (C. albicans; strain AF3, 25 µM, Fig 5E): 26% and 25% and 28% | Growth (%) (C. albicans; strain CAAL74, 3.13 µM, Fig 5D): 67% and 74% and 60% | Growth (%) (C. albicans; strain CagR, 25 µM, Fig 5E): 18% and 12% | Growth (%) (C. albicans; strain DSY292, 0.78 µM, Fig 5D): 84% and 81% and 86% | Growth (%) (C. albicans; strain DSY292, 3.13 µM, Fig 5D): 55% and 51% | Growth (%) (C. albicans; strain DSY296, 0.78 µM, Fig 5D): 97% and 88% and 92% | Growth (%) (C. albicans; strain DSY296, 3.13 µM, Fig 5D): 71% and 66% and 72% | Growth (%) (C. albicans; strain DSY2323, 3.13 µM, Fig 5D): 85% and 88% and 76% | Growth (%) (C. glabrata; 1.5625 µM, Fig 5C): 91% and 84% and 88% | Growth (%) (C. glabrata; 3.125 µM, Fig 5C): 88% and 77% and 93% | Growth (%) (C. glabrata; 25 µM, Fig 5C): 62% and 60% and 75% | EC50 (C. glabrata; read-out: EC50 growth inhibition, Table S5, C. glabrata DSY565, azole-resistant, Pdr1 (L280F)): 1.14 ± 0.62 µM | EC50 (C. glabrata; read-out: EC50 growth inhibition, Table S5, C. glabrata HAB1, azole-resistant, Pdr1 (T370I)): 1.66 ± 0.56 µM | EC50 (C. glabrata; Fig 5C, read-out: EC50 (μM), C. glabrata): 12 ± 5.6 µM | EC50 (C. glabrata; Table S5, C. glabrata ATCC2001, WT, read-out: EC50 growth inhibition): 1.52 ± 0.44 µM | Growth (%) (C. auris; 1.5625 µM): 91% and 92% and 90% | Growth (%) (C. auris; 3.125 µM): 85% and 86% and 87% | Growth (%) (C. auris; 25 µM): 73% and 79% | EC50 (C. auris; Candidozyma auris): > 50 µM | Growth (%) (C. krusei; 1.5625 µM): 97% and 93% | Growth (%) (C. krusei; 3.125 µM): 102% and 92% and 91% | Growth (%) (C. krusei; 25 µM): 103% and 86% and 91% | Growth (%) (C. parapsilosis; 1.5625 µM): 87% and 91% and 88% | Growth (%) (C. parapsilosis; 3.125 µM): 79% and 80% and 78% | Growth (%) (C. parapsilosis; 25 µM): 58% and 59% and 57% | EC50 (C. parapsilosis; Lodderomyces parapsilosis): ~30 µM | Growth (%) (C. tropicalis; 1.5625 µM): 85% and 87% and 84% | Growth (%) (C. tropicalis; 3.125 µM): 76% and 75% | Growth (%) (C. tropicalis; 25 µM): 31% and 40% and 34% | EC50 (C. tropicalis; Candida tropicalis): 8.8 ± 1.4 µM | protection against infection ([1]; 44 mg kg^−1): not significant | survival of infected larvae ([1]; 66 mg kg^−1, injected once 30 min before infection): ≈ 100 h | survival event of one larva (1 = death 0 = no death) ([1]; Figure 6B, Time 10 hours): 1 | survival event of one larva (1 = death 0 = no death) ([1]; Figure 6B, Time 35 hours): 1 | survival event of one larva (1 = death 0 = no death) ([1]; Figure 6B, Time 50 hours): 1 | survival event of one larva (1 = death 0 = no death) ([1]; Figure 6B, Time 73 hours): 1 | survival event of one larva (1 = death 0 = no death) ([1]; Figure 6D, Time 17 hours): 1 | survival event of one larva (1 = death 0 = no death) ([1]; Figure 6D, Time 23 hours): 1 | survival event of one larva (1 = death 0 = no death) ([1]; Figure 6D, Time 41 hours): 1 and 0 | protection against infection ([2]; 44 mg kg^−1, humanized strain, p = 0.0115, Mantel‐Cox test): significant protection | survival of infected larvae ([2]; 66 mg kg^−1, injected once 30 min before infection, humanized strain): ≈ 100 h | survival event of one larva (1 = death 0 = no death) ([2]; Figure 6C, Time 8 hours): 1 | survival event of one larva (1 = death 0 = no death) ([2]; Figure 6C, Time 33 hours): 1 | survival event of one larva (1 = death 0 = no death) ([2]; Figure 6C, Time 57 hours): 1 | survival event of one larva (1 = death 0 = no death) ([2]; Figure 6C, Time 70 hours): 1 | survival event of one larva (1 = death 0 = no death) ([2]; Figure 6D, Time 27 hours): 1 | survival event of one larva (1 = death 0 = no death) ([2]; Figure 6D, Time 41 hours): 1 and 0

Cc1ccc(-c2nnc(C)c(NCc3ccc(C)o3)n2)cc1 [Compound 24c, 6‐methyl‐N‐((5‐methylfuran‐2‐yl)methyl)‐3‐(p‐tolyl)‐1,2,4‐triazin‐5‐amine]
activity against PDR1 deletion strain versus WT/rescue ([3]; 50 µM (I-BET726 1 µM), 20 h): unaffected | growth relative to Solvent = 100 (Figure S10B) ([3]; PDR1 Rescue): 76.2272 and 100 and 72.1057 | growth relative to Solvent = 100 (Figure S10B) ([3]; WT): 69.2689 and 72.9849 and 92.6631 | growth relative to Solvent = 100 (Figure S10B) ([3]; pdr1∆): 52.2261 and 60.5623 and 93.6717 | cytotoxicity toward HeLa cells (MTT) (HeLa cells): modest cytotoxicity | cytotoxicity toward IMR90 cells (MTT) [4]: modest cytotoxicity
